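Briefly, cells in 96-well plates were exposed to five compound concentrations for 48 h, and endpoints were estimated by linear interpolation. Abbreviation: GI50, concentration required for 50% inhibition of growth.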 Calls of active or inactive are those of the source. Rule as the data show it: active = GI50 up to about 1.1 µM and inactive = higher.
Legend:
Assay in all cases: DTP human tumour cell line panel, 48 h
[1] = system: UACC-257
[2] = system: SNB-19
[3] = system: NCI-H522
[4] = system: A498
[5] = system: SK-MEL-2
[6] = system: U-251
[7] = system: NCI-H460
[8] = system: OVCAR-5
[9] = system: MOLT-4
[10] = system: ACHN
[11] = system: UACC-62
[12] = system: HCC 2998
[13] = system: SN12C
[14] = system: T47D
[15] = system: HCT-15
[16] = system: NCI-H23
[17] = system: SW-620
[18] = system: EKVX
[19] = system: Malme-3M
[20] = system: SR

Row | SMILES | GI50 [1] | GI50 [2] | GI50 [3] | GI50 [4] | GI50 [5] | GI50 [6] | GI50 [7] | GI50 [8] | GI50 [9] | GI50 [10] | GI50 [11] | GI50 [12] | GI50 [13] | GI50 [14] | GI50 [15] | GI50 [16] | GI50 [17] | GI50 [18] | GI50 [19] | GI50 [20]
1 | N/C(=N\O)N/N=C/c1cc(I)cc(I)c1O | 52.2 µM (inactive) | 49.5 µM (inactive) | 80.5 µM (inactive) | > 100 µM (inactive) | 54.8 µM (inactive) | 34.8 µM (inactive) | 35.2 µM (inactive) | 79.1 µM (inactive) | > 100 µM (inactive) | 24.1 µM (inactive) | 31.9 µM (inactive) | 61.9 µM (inactive) | 28.8 µM (inactive) | 48.1 µM (inactive) | 5.37 µM | 28 µM (inactive) | > 100 µM (inactive) | 58.3 µM (inactive) | 19.3 µM (inactive) | –
2 | CC(C)=CCC/C(C)=C/Cc1cc(/C=C/c2cc(O)c(CC=C(C)C)c(O)c2)cc(O)c1O [MAPPAIN] | 1.67 µM (inactive) | 4.5 µM (inactive) | 0.141 µM (active) | 6.56 µM (inactive) | 2.77 µM (inactive) | 2.18 µM (inactive) | 2.68 µM (inactive) | 4.36 µM (inactive) | 1.93 µM (inactive) | 1.48 µM (inactive) | 2.7 µM (inactive) | 2.13 µM (inactive) | 1.95 µM (inactive) | 1.84 µM (inactive) | 3.05 µM | 3.31 µM (inactive) | 3.54 µM (inactive) | 2.96 µM (inactive) | 6.38 µM (inactive) | –
3 | CC(Cl)CN1c2ccccc2Sc2ccc(Cl)cc21 (configuration not stated) | > 10 µM (inactive) | > 10 µM (inactive) | > 10 µM (inactive) | > 10 µM (inactive) | > 10 µM (inactive) | > 10 µM (inactive) | > 10 µM (inactive) | > 10 µM (inactive) | > 10 µM (inactive) | > 10 µM (inactive) | > 10 µM (inactive) | > 10 µM (inactive) | > 10 µM (inactive) | > 10 µM (inactive) | > 10 µM | > 10 µM (inactive) | > 10 µM (inactive) | > 10 µM (inactive) | > 10 µM (inactive) | –
4 | Cc1nc(O)nc(N(CCO)/N=C/c2ccc(Cl)cc2)c1C(=O)Nc1ccc(Cl)cc1 | > 100 µM (inactive) | 83.9 µM (inactive) | > 100 µM (inactive) | > 100 µM (inactive) | 34.4 µM (inactive) | 21.3 µM (inactive) | > 100 µM (inactive) | > 100 µM (inactive) | > 100 µM (inactive) | > 100 µM (inactive) | > 100 µM (inactive) | > 100 µM (inactive) | > 100 µM (inactive) | 98.4 µM (inactive) | > 100 µM | > 100 µM (inactive) | > 100 µM (inactive) | > 100 µM (inactive) | 26.1 µM (inactive) | –
5 | COC1=CC(=O)C(O)=C(C[C@@]2(C)[C@@H]3CCC[C@H](COC(=O)CCCCCNC(=O)OC(C)(C)C)[C@@]3(C)CC[C@@H]2C)C1=O | > 10 µM (inactive) | 3.77 µM (inactive) | 3.05 µM (inactive) | > 10 µM (inactive) | > 10 µM (inactive) | 3.9 µM (inactive) | – | > 10 µM (inactive) | 3.1 µM (inactive) | 3.32 µM (inactive) | – | – | > 10 µM (inactive) | 4.45 µM (inactive) | – | – | 6.34 µM (inactive) | 8.28 µM (inactive) | 5.9 µM (inactive) | 5.22 µM (inactive)
6 | Oc1cc2c(cc1C(c1ccc3c(c1)OCO3)N1CCN(C(c3ccc4c(c3)OCO4)c3cc4c(cc3O)OCO4)CC1)OCO2 (configuration not stated) | 17.6 µM (inactive) | 20.4 µM (inactive) | 14.2 µM (inactive) | – | 19.5 µM (inactive) | 15.4 µM (inactive) | 38.6 µM (inactive) | 18.2 µM (inactive) | 7.08 µM (inactive) | 13.7 µM (inactive) | 14.4 µM (inactive) | – | 16 µM (inactive) | 17.2 µM (inactive) | 7.98 µM | 16.9 µM (inactive) | 12.7 µM (inactive) | 35.2 µM (inactive) | 15.6 µM (inactive) | 3.61 µM (inactive)
7 | CC(C)C1CCC(=O)CC1CCCCC1CC(=O)CC1O[Si](C)(C)C(C)(C)C (configuration not stated) | 6.4 µM (inactive) | 3.98 µM (inactive) | 2.1 µM (inactive) | 8.09 µM (inactive) | 6.44 µM (inactive) | 2.32 µM (inactive) | 7.46 µM (inactive) | 11.1 µM (inactive) | 1.89 µM (inactive) | 4.3 µM (inactive) | 4.45 µM (inactive) | 7.03 µM (inactive) | 5.5 µM (inactive) | 14.2 µM (inactive) | 3.44 µM | 15.5 µM (inactive) | 4.91 µM (inactive) | 15.7 µM (inactive) | 6.76 µM (inactive) | –
8 | Nc1nc(Cl)cc(Nc2cc(Cl)cc(Cl)c2)n1 | 18.5 µM (inactive) | 23.4 µM (inactive) | 10.9 µM (inactive) | 25.9 µM (inactive) | 18.7 µM (inactive) | 21.2 µM (inactive) | 18.2 µM (inactive) | 31.9 µM (inactive) | 22.3 µM (inactive) | 24.9 µM (inactive) | 18.4 µM (inactive) | 18.7 µM (inactive) | 22 µM (inactive) | 37 µM (inactive) | 20.7 µM | 23.1 µM (inactive) | 22.4 µM (inactive) | 21.3 µM (inactive) | 22.3 µM (inactive) | –
